# Patent US8889398B2, “Composition for inactivating an enveloped virus” (Viroblock SA, priority 2006, dated 2014)
# Entries after “also recorded” stand apart in the source; their conditions may differ.
# How the values were obtained:
# [1] = system: rSeV-Luc (recombinant Sendai virus); experiment: Inactivation assay with or without cyclodextrin, rSeV-Luc, luciferase activity in MK2 cells; type: cell-based
# Protocol: MK2 (monkey) cells were grown at 37° C. in DMEM containing 5% of bovine serum albumin (BSA) until they reached 70% of confluence.
# A recombinant Sendai virus was used, rSeV-Luc, which encodes the Photinus pyralis luciferase gene.
# The nPLV preparations were diluted in PBS to the indicated concentrations. The diluted nPLVs were then mixed with the viruses, either alone (no cyclodextrin) or in combination with 0.5 mM (final concentration) of cyclodextrin, in a volume of 100 μl. The virus-nPLV mixtures were incubated at room temperature for 20 minutes with shaking. About 10^5 viral particles were used.
# Following incubation, the mixtures were diluted to […] in DMEM without BSA and directly added onto cells. Infections were performed at 33° C. for one hour, and then infectious mixes were removed. Cells were washed once with DMEM without BSA, 10 ml of DMEM with 1% BSA were added and incubation was further performed at 37° C. for 36 hours. Experiment was done in duplicates.
# MK2 cells were lysed and luciferase activity was determined using the Promega's Luciferase Assay System. Measurements were done with TD-20/20 luminometer (Turner Designs).
# [2] = system: cellular integrity; settings: 50-100 mM, range of concentrations used in most in vitro experiments; cited from earlier work
compound,measurement,setting,value
OC[C@H]1O[C@@H]2O[C@H]3[C@H](O)[C@@H](O)[C@@H](O[C@H]4[C@H](O)[C@@H](O)[C@@H](O[C@H]5[C@H](O)[C@@H](O)[C@@H](O[C@H]6[C@H](O)[C@@H](O)[C@@H](O[C@H]7[C@H](O)[C@@H](O)[C@@H](O[C@H]8[C@H](O)[C@@H](O)[C@@H](O[C@H]1[C@H](O)[C@H]2O)O[C@@H]8CO)O[C@@H]7CO)O[C@@H]6CO)O[C@@H]5CO)O[C@@H]4CO)O[C@@H]3CO [β-cyclodextrin],effect of β-cyclodextrin on the viral inactivation by nPLVs,"[1]; 0.5 mM β-cyclodextrin with nPLVs composed of PCE with 0.1% mol of oleic acid (OA), nPLVs 0.02%, 0.05% and 0.1%, FIG. 2A",greatly enhances the viral inactivation; also recorded: strong synergistic effect
same,concentration at which a direct effect of β-cyclodextrin alone on the viral particles is observed,"[1]; in absence of nPLVs, FIG. 2B",higher than 5 mM
same,effect on cellular integrity,[2],detrimental for cellular integrity and can induce cell death
